The subject of test [1] is Gram-negative gut commensals (A. muciniphila and Bacteroidetes species). The test can be described thus: Antibacterial assay against Gram-negative gut commensals. The test is classed as cell-based. The source says:
The 13 most abundant members of the human gut microbiota^15 were exposed to increasing concentrations of the peptides. Species from four different phyla were used to determine susceptibility to the encrypted peptides: Akkermansia muciniphila (Verrucomicrobia); Bacteroides fragilis, Bacteroides thetaiotaomicron, Bacteroides vulgatus, Bacteroides uniformis, Bacteroides eggerthi, Parabacteroidetes distasonis, and Prevotella copri (Bacteroidetes); Collinsella aerofaciens (Actinobacteria); and Clostridium scindens and Clostridium spiroforme (Firmicutes).
Methods: Bacterial strains and media. […] Minimum inhibitory concentrations (MICs) of peptides were determined using the broth microdilution technique in LB, NB and supplemented BHI with an initial inoculum of 5×10^6 cells in nontreated polystyrene microtiter plates (Corning, USA). […]

A further test deals with A. baumannii ATCC19606. The test can be described thus: Skin abscess infection mouse model. It is filed as in vivo, Acinetobacter baumannii. To be noted: for anti-infective activity (FIG. 4B): 25 μmol L^−1, A. baumannii ATCC19606; for reduction of bacterial load / bacterial counts: mice, single dose 25 μmol L^−1 to infected area, A. baumannii. The source says: FIG. 4. Anti-infective activity and synergistic interactions of encrypted peptides in vivo. (FIG. 4A) Schematic of the skin abscess mouse model used to assess the anti-infective activity of selected encrypted peptides from plasma proteins. […] (FIG. 4C) Mouse weight was monitored throughout the experiment (2 days) to rule out potential toxic effects of the encrypted peptides. (FIG. 4D) Schematic of the neutropenic thigh infection mouse model used to assess the anti-infective activity of selected encrypted peptides from plasma proteins. […] (FIG. 4F) Mouse weight was monitored throughout the experiment (8 days) to rule out potential toxic effects of the encrypted peptides.
To test whether the peptides retain their antimicrobial activity in a complex living system, their properties in two mouse models were assessed. […] Since these peptides are mostly found in plasma, a relevant skin abscess mouse model was used to test their anti-infective activity (FIG. 4A). Mice were infected with bacterial loads of 10^5 and 10^6 cells in 20 μL of the clinically relevant Gram-negative pathogens P. aeruginosa and A. baumannii, respectively (FIG. 4B). […] In order to validate the synergistic effects obtained in vitro (FIG. 3D and FIG. 9), infected mice were treated with combinations of encrypted peptides (FIG. 4B). […] No damage or deleterious effects exerted by the peptides were detected in the mice in any of our experiments.
Methods: Skin abscess infection mouse model. A. baumannii ATCC19606 and P. aeruginosa strain PAO1 were used to infect the murine skin. Briefly, bacteria were grown in tryptic soy broth (TSB) medium. Subsequently, cells were washed twice with sterile PBS (pH 7.4, 13,000 rpm for 1 min), and resuspended to a final concentration of 1×10^5 and 1×10^6 CFU/20 μL for A. baumannii and P. aeruginosa, respectively. Female CD-1 mice (six-weeks old) were anesthetized with isoflurane and had their backs shaved and a superficial linear skin abrasion was made with a needle in order to damage the stratum corneum and upper-layer of the epidermis. An aliquot of 20 μL containing the bacterial load in PBS was inoculated over each defined area containing the scratch with a pipette tip. […] Animals were euthanized and the area of scarified skin was excised two- and four-days post-infection, homogenized using a bead beater for 20 minutes (25 Hz), and 10-fold serially diluted for CFU quantification. […] Prior to each injection, mice were anesthetized with isoflurane and monitored (respiratory rate and pedal reflexes). Next, we monitored the formation of the abscess and euthanized the mice. The infected area was excised three-days post-infection, homogenized using a bead beater for 20 min (25 Hz), and 10-fold serially diluted for CFU quantification. […]

Ends that are not written are not given here.

The results in this text go back to patent US20240194290A1, “HIDDEN ANTIBIOTICS IN THE HUMAN PROTEOME” (THE TRUSTEES OF THE UNIVERSITY OF PENNSYLVANIA, priority 2021, published 2024).

With MLPKSFIKLLRSKVSSFLRPYK [SCUB3-MLP22], the “activity against Gram-negative gut commensals” value in test [1] is on record as “potent activity”. Further, in the test with A. baumannii ATCC19606, the “anti-infective activity (FIG. 4B)” value is “inhibitory activity” and the “reduction of bacterial load / bacterial counts” value was 3 orders of magnitude.

Take SKEMFPRSFIKLLRSKVSRFLRPYK [SCUB1-SKE25]: the “activity against Gram-negative gut commensals” value in test [1] is reported as “potent activity”. In the test with A. baumannii ATCC19606, the “anti-infective activity (FIG. 4B)” value is listed as “inhibitory activity” and the “reduction of bacterial load / bacterial counts” value is listed as 3 orders of magnitude.
